Test results taken from ChEMBL document CHEMBL1909046, “DrugMatrix in vitro pharmacology data”.

Legend:
[1] = molecular target: Beta-2 adrenergic receptor (Homo sapiens, UniProt P07550); assay: DRUGMATRIX: Adrenergic beta2 radioligand binding (ligand: [3H] CGP-12177); assay type: cell membranes, Membrane; details: cho; Not Active = under 50% inhibition at 10 µM
[2] = molecular target: Beta-3 adrenergic receptor (Homo sapiens, UniProt P13945); assay: DRUGMATRIX: Adrenergic beta3 radioligand binding (ligand: [125I] Cyanopindolol); assay type: cell membranes, HEK293, Membrane; details: hek293; Not Active = under 50% inhibition at 10 µM
Beta-3 adrenergic receptor, sequence (P13945 whole entry): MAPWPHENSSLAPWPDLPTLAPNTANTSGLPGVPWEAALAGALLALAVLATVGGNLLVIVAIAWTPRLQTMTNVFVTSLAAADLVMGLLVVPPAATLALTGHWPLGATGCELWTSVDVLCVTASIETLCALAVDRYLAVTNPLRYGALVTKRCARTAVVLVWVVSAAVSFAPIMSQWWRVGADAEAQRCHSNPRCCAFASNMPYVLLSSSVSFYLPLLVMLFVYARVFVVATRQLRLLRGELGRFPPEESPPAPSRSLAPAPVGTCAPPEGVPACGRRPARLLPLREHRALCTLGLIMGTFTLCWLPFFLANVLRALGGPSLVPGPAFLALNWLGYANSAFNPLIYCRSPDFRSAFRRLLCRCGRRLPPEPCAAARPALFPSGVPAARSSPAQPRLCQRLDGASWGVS

[3] = molecular target: 5-hydroxytryptamine receptor 6 (Homo sapiens, UniProt P50406); assay type: cell membranes, HeLa, Membrane; details: hela; note: in other assays of this panel Not Active means under 50% inhibition at 10 µM
5-hydroxytryptamine receptor 6, sequence (P50406 whole entry): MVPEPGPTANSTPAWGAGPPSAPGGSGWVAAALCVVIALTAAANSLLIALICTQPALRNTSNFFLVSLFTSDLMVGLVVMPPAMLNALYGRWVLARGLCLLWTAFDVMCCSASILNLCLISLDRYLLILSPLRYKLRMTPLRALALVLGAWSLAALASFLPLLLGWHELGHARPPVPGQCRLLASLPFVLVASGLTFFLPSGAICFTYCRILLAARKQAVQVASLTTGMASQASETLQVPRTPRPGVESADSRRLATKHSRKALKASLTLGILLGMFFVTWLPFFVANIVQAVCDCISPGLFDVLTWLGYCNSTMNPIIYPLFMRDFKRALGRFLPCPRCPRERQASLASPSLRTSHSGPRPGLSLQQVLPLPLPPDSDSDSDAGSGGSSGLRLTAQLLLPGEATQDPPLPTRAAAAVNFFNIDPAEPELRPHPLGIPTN

[4] = molecular target: T1, C-C chemokine receptor type 4 (Homo sapiens, UniProt P51679); assay type: cell membranes, Membrane; details: chem-1; note: in other assays of this panel Not Active means under 50% inhibition at 10 µM
T1 sequence (P51679 whole entry): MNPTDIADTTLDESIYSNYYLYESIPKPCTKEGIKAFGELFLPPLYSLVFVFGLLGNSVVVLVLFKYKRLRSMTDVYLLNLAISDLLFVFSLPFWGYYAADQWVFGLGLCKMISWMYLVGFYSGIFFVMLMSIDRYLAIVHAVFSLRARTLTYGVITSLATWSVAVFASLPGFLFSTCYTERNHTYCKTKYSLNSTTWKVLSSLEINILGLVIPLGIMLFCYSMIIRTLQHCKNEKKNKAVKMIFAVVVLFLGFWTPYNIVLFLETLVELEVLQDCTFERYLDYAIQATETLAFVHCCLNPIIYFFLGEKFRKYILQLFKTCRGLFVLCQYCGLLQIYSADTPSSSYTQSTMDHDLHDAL

Melanocortin receptor 5 = Melanocortin receptor 5 (Homo sapiens, UniProt P33032); assay type: cell membranes, HEK293, Membrane; details: hek293; note: in other assays of this panel Not Active means under 50% inhibition at 10 µM
Melanocortin receptor 5, sequence (P33032 whole entry): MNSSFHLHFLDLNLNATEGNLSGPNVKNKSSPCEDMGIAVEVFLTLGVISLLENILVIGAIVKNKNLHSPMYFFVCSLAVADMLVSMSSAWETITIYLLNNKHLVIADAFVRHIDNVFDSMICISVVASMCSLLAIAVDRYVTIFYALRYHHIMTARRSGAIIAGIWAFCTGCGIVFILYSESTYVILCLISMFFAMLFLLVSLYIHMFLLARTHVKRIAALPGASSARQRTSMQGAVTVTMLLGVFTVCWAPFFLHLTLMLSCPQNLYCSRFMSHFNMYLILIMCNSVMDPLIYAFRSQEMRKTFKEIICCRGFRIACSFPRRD

[5] = molecular target: T2, Amine oxidase [flavin-containing] A (Homo sapiens, UniProt P21397); assay: DRUGMATRIX: Monoamine Oxidase MAO-A enzyme inhibition (substrate: Kynuramine); set-up: species or system BTI-TN-5B1-4; details: bti-tn-5b1-4; Not Active = under 50% inhibition at 10 µM
T2 sequence (P21397 whole entry): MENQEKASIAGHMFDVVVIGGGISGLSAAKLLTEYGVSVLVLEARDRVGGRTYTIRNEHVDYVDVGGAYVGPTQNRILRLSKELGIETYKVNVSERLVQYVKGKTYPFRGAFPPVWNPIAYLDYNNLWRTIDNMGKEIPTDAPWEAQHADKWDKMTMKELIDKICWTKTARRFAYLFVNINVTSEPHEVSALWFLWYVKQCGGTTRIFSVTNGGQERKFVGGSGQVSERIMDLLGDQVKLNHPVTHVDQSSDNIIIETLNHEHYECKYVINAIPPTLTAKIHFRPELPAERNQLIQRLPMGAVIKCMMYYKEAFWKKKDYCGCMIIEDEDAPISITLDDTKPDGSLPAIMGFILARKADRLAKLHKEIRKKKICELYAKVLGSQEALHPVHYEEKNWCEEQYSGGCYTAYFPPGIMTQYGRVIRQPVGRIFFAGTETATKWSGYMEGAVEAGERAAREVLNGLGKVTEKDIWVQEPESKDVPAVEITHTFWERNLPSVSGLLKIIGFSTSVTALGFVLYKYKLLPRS

[6] = molecular target: cGMP-specific 3',5'-cyclic phosphodiesterase (Homo sapiens, UniProt O76074); assay: DRUGMATRIX: Phosphodiesterase PDE5 enzyme inhibition (substrate: [3H]cGMP + cGMP); assay type: tissue-based, Platelet; details: platelet; Not Active = under 50% inhibition at 10 µM
[7] = DRUGMATRIX: Platelet-Derived Growth Factor (PDGF) radioligand binding (ligand: [125I] PDGF); assay type: cell-based; details: nih3t3; Not Active = under 50% inhibition at 10 µM
Cathepsin G = molecular target: T3, Cathepsin G (Homo sapiens, UniProt P08311); assay type: tissue-based; details: neutrophil;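 note: inhibition of Cathepsin G enzyme activity, tested on an AMC-conjugated peptide substrate; in other assays of this panel Not Active means under 50% inhibition at 10 µM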
T3 sequence (P08311 whole entry): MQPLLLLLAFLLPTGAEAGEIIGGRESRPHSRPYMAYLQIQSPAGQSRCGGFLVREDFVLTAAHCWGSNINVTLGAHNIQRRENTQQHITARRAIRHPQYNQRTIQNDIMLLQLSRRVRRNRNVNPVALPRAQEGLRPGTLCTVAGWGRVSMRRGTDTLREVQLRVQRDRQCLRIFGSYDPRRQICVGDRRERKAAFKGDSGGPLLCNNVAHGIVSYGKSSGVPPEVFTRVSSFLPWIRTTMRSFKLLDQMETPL

[8] = molecular target: Mitogen-activated protein kinase 14 (Homo sapiens, UniProt Q16539); set-up: species or system Escherichia coli
Mitogen-activated protein kinase 14, sequence (Q16539 whole entry): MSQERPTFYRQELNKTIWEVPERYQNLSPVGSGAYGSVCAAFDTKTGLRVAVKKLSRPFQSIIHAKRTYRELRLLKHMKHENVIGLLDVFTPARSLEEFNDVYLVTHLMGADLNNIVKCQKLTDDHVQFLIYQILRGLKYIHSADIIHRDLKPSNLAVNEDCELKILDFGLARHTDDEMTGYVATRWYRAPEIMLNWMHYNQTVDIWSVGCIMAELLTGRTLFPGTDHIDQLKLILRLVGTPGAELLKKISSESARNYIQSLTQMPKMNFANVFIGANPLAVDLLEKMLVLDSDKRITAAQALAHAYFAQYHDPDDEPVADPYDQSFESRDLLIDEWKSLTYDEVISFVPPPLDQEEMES

[9] = molecular target: Protein phosphatase 3 catalytic subunit alpha (Homo sapiens, UniProt Q08209); set-up: species or system Escherichia coli
[10] = molecular target: Epidermal growth factor receptor (Homo sapiens, UniProt P00533); assay: DRUGMATRIX: Protein Tyrosine Kinase, EGF Receptor enzyme inhibition (substrate: Poly(Glu:Tyr)); assay type: cell-based, Insect cells; details: insect cells; Not Active = under 50% inhibition at 10 µM
Epidermal growth factor receptor, sequence (P00533 whole entry): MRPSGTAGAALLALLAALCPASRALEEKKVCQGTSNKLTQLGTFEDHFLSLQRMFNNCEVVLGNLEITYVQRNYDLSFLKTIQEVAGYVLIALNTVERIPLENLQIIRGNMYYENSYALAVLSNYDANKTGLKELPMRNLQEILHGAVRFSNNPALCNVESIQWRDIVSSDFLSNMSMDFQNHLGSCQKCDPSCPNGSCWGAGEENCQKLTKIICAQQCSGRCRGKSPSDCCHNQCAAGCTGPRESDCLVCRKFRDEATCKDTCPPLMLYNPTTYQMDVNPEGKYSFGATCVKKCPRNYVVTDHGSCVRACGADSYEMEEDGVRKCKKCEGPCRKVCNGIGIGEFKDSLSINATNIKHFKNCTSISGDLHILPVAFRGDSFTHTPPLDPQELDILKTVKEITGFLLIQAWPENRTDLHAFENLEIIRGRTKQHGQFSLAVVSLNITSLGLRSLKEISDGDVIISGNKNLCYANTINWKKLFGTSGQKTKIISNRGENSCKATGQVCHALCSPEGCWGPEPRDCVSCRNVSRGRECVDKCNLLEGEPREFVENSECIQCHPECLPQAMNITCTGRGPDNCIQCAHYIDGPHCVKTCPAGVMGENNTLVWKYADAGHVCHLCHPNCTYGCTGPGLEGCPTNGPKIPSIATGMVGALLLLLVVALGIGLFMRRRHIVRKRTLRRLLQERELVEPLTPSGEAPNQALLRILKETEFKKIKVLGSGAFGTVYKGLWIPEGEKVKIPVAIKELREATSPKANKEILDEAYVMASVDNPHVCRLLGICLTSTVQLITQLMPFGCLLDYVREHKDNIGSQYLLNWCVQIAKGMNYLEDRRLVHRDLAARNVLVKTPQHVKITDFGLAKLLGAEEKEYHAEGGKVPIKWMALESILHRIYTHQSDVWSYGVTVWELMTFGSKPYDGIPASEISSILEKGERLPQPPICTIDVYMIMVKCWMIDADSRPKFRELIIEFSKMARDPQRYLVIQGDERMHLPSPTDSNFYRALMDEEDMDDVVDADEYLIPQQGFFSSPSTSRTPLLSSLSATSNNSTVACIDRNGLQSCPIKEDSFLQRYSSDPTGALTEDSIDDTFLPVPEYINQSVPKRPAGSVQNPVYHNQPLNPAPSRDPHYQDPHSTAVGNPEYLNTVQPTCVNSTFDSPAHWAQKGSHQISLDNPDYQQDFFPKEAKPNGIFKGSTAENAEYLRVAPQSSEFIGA

[11] = DRUGMATRIX: Purinergic P2X radioligand binding (ligand: [3H] alpha, beta-Methylene-ATP); assay type: cell membranes, Oryctolagus cuniculus, New Zealand albino, Urinary bladder, Membrane; details: Not Active = under 50% inhibition at 10 µM

Beta-2 adrenergic receptor, sequence (P07550 whole entry): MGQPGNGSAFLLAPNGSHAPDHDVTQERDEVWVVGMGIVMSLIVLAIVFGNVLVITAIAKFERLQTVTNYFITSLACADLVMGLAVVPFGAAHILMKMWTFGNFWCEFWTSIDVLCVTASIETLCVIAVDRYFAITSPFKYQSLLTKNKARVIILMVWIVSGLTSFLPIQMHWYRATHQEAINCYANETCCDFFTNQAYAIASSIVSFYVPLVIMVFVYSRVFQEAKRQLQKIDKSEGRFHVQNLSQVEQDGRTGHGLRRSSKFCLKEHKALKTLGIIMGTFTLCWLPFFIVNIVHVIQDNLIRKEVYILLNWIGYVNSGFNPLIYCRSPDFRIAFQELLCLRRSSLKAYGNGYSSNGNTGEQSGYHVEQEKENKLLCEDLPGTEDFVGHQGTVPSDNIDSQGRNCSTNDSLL

CN[C@@H]1[C@@H](O)[C@@H](O[C@@H]2[C@@H](O)[C@H](O[C@H]3OC(CN)=CC[C@H]3N)[C@@H](N)C[C@H]2N)OC[C@]1(C)O [SISOMICIN]
Not Active: IC50 [1] | IC50 [2] | IC50 [3] | IC50 [4] | IC50 (Melanocortin receptor 5) | IC50 [5] | IC50 [6] | IC50 [7] | Ki [7] | IC50 (Cathepsin G) | IC50 [8] | IC50 [9] | IC50 [10] | IC50 [11] | Ki [11]

CC(=O)S[C@@H]1CC2=CC(=O)CC[C@]2(C)[C@H]2CC[C@@]3(C)[C@@H](CC[C@@]34CCC(=O)O4)[C@H]12 [SPIRONOLACTONE]
Not Active: IC50 [1] | IC50 [2] | IC50 [3] | IC50 [4] | IC50 (Melanocortin receptor 5) | IC50 [5] | IC50 [6] | IC50 [7] | Ki [7] | IC50 (Cathepsin G) | IC50 [8] | IC50 [9] | IC50 [10] | IC50 [11] | Ki [11]

C[C@]12Cc3c[nH]nc3C[C@@H]1CC[C@@H]1[C@@H]2CC[C@@]2(C)[C@H]1CC[C@]2(C)O [STANOZOLOL]
Not Active: IC50 [1] | IC50 [2] | IC50 [3] | IC50 [4] | IC50 (Melanocortin receptor 5) | IC50 [5] | IC50 [6] | IC50 [7] | Ki [7] | IC50 (Cathepsin G) | IC50 [8] | IC50 [9] | IC50 [10] | IC50 [11] | Ki [11]

CN(N=O)C(=O)N[C@@H](C=O)[C@@H](O)[C@H](O)[C@H](O)CO [STREPTOZOCIN]
Not Active: IC50 [1] | IC50 [2] | IC50 [3] | IC50 [4] | IC50 (Melanocortin receptor 5) | IC50 [5] | IC50 [6] | IC50 [7] | Ki [7] | IC50 (Cathepsin G) | IC50 [8] | IC50 [9] | IC50 [10] | IC50 [11] | Ki [11]

Cc1cc(NS(=O)(=O)c2ccc(N)cc2)no1 [SULFAMETHOXAZOLE]
Not Active: IC50 [1] | IC50 [2] | IC50 [3] | IC50 [4] | IC50 (Melanocortin receptor 5) | IC50 [5] | IC50 [6] | IC50 [7] | Ki [7] | IC50 (Cathepsin G) | IC50 [8] | IC50 [9] | IC50 [10] | IC50 [11] | Ki [11]

Nc1ccc(S(N)(=O)=O)cc1 [SULFANILAMIDE]
Not Active: IC50 [1] | IC50 [2] | IC50 [3] | IC50 [4] | IC50 (Melanocortin receptor 5) | IC50 [5] | IC50 [6] | IC50 [7] | Ki [7] | IC50 (Cathepsin G) | IC50 [8] | IC50 [9] | IC50 [10] | IC50 [11] | Ki [11]

Nc1ccc(S(=O)(=O)Nc2ccnn2-c2ccccc2)cc1 [SULFAPHENAZOLE]
Not Active: IC50 [1] | IC50 [2] | IC50 [3] | IC50 [4] | IC50 (Melanocortin receptor 5) | IC50 [5] | IC50 [6] | IC50 [7] | Ki [7] | IC50 (Cathepsin G) | IC50 [8] | IC50 [9] | IC50 [10] | IC50 [11] | Ki [11]

C=CC[C@@H]1/C=C(\C)C[C@H](C)C[C@H](OC)[C@H]2O[C@@](O)(C(=O)C(=O)N3CCCC[C@H]3C(=O)O[C@H](/C(C)=C/[C@@H]3CC[C@@H](O)[C@H](OC)C3)[C@H](C)[C@@H](O)CC1=O)[C@H](C)C[C@@H]2OC [TACROLIMUS ANHYDROUS]
Not Active: IC50 [1] | IC50 [2] | IC50 [3] | IC50 [4] | IC50 (Melanocortin receptor 5) | IC50 [5] | IC50 [6] | IC50 [7] | Ki [7] | IC50 (Cathepsin G) | IC50 [8] | IC50 [9] | IC50 [10] | IC50 [11] | Ki [11]
